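In this assay, cells in 96-well plates receive the compound at five concentrations for 48 hours. Endpoints are linearly interpolated between the surrounding concentrations. Abbreviation: GI50, concentration required for 50% inhibition of growth. TGI: total growth inhibition.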
Key:
Test in all cases: NCI-60 cell line screen, 48 h
[1] = test system: SN12C renal
[2] = test system: T-47D breast
[3] = test system: UACC-62 melanoma
[4] = test system: OVCAR-5 ovarian
[5] = test system: MOLT-4 leukemia
[6] = test system: NCI-H522 lung
[7] = test system: SK-OV-3 ovarian
[8] = test system: MCF7 breast
[9] = test system: SR leukemia
[10] = test system: U251 CNS
[11] = test system: HT29 colon
[12] = test system: TK-10 renal
[13] = test system: HCT-116 colon
[14] = test system: KM12 colon
[15] = test system: IGROV1 ovarian
[16] = test system: OVCAR-4 ovarian
[17] = test system: NCI-H460 lung
[18] = test system: HOP-62 NSCLC
[19] = test system: SW-620 colon
[20] = test system: 786-0 renal
[21] = test system: HS 578T breast
[22] = test system: HCC-2998 colon
[23] = test system: HOP-92 NSCLC
[24] = test system: BT-549 breast
[25] = test system: MDA-MB-468 breast
[26] = test system: HCT-15 colon
[27] = test system: NCI/ADR-RES ovarian
[28] = test system: PC-3 prostate
[29] = test system: UO-31 renal
[30] = test system: M14 melanoma
[31] = test system: A498 renal
[32] = test system: SNB-75 CNS
[33] = test system: SNB-19 CNS
[34] = test system: EKVX NSCLC
[35] = test system: SK-MEL-28 melanoma
[36] = test system: SF-268 CNS
[37] = test system: HL-60(TB) leukemia
[38] = test system: OVCAR-8 ovarian
[39] = test system: MALME-3M melanoma
[40] = test system: MDA-MB-231 breast
[41] = test system: NCI-H226 lung
[42] = test system: CAKI-1 renal
[43] = test system: NCI-H23 lung
[44] = test system: CCRF-CEM leukemia
[45] = test system: K-562 leukemia
[46] = test system: UACC-257 melanoma
[47] = test system: RXF 393 renal
[48] = test system: COLO 205 colon
[49] = test system: DU-145 prostate
[50] = test system: ACHN renal
[51] = test system: SF-295 CNS
[52] = test system: SF-539 CNS
[53] = test system: A549 NSCLC
[54] = test system: MDA-MB-435
[55] = test system: LOX IMVI melanoma
[56] = test system: SK-MEL-2 melanoma
[57] = test system: OVCAR-3 ovarian
[58] = test system: RPMI-8226 leukemia
[59] = test system: SK-MEL-5 melanoma

Compound `COc1ccc2[nH]c(O)c(N=Nc3nc(-c4ccccc4)cs3)c2c1` has a GI50 [1] of 2.5 µM, a TGI [1] of 17.7 µM and a GI50 [2] of 2.78 µM. It also gave a TGI [2] of 15.8 µM, a GI50 [3] of 2.54 µM and a TGI [3] of 38.7 µM. It also gave a GI50 [4] of 5.44 µM, a TGI [4] of 36.7 µM and a GI50 [5] of 7.27 µM. It also gave a TGI [5] of over 100 µM, a GI50 [6] of 2.29 µM and a TGI [6] of 9.63 µM. The GI50 [7] was 3.52 µM, the TGI [7] was 22.2 µM and the GI50 [8] was 3.66 µM. It also gave a TGI [8] of 42.5 µM, a GI50 [9] of 4.55 µM and a TGI [9] of over 100 µM. It also gave a GI50 [10] of 2.62 µM, a TGI [10] of 6.97 µM and a GI50 [11] of 7.21 µM. For the same compound, the TGI [11] was 41.1 µM, the GI50 [12] was 6.47 µM and the TGI [12] was 16.5 µM. The GI50 [13] was 2.26 µM, the TGI [13] was 5.34 µM and the GI50 [14] was 5.55 µM. For the same compound, the TGI [14] was over 100 µM, the GI50 [15] was 5.04 µM and the TGI [15] was 31.9 µM. It also gave a GI50 [16] of 1.98 µM, a TGI [16] of 5.07 µM and a GI50 [17] of 3.43 µM. It also gave a TGI [17] of 14.8 µM, a GI50 [18] of 5.26 µM and a TGI [18] of 30.3 µM. It also gave a GI50 [19] of 3.7 µM, a TGI [19] of 16.6 µM and a GI50 [20] of 1.96 µM. The TGI [20] was 3.69 µM, the GI50 [21] was 4.27 µM and the TGI [21] was 42.9 µM. It also gave a GI50 [22] of 6.93 µM, a TGI [22] of over 100 µM and a GI50 [23] of 1.06 µM. The TGI [23] was 4.14 µM, the GI50 [24] was 4.43 µM and the TGI [24] was 21.8 µM. The GI50 [25] was 1.71 µM, the TGI [25] was 5.35 µM and the GI50 [26] was 3.26 µM. It also gave a TGI [26] of 17.3 µM, a GI50 [27] of 2.24 µM and a TGI [27] of 5.15 µM. For the same compound, the GI50 [28] was 4.57 µM, the TGI [28] was over 100 µM and the GI50 [29] was 1.38 µM. The TGI [29] was 6.4 µM, the GI50 [30] was 5.8 µM and the TGI [30] was 46.7 µM. It also gave a GI50 [31] of 2.67 µM, a TGI [31] of 5.96 µM and a GI50 [32] of 2.64 µM. For the same compound, the TGI [32] was 16.2 µM, the GI50 [33] was 3.09 µM and the TGI [33] was 10.4 µM. It also gave a GI50 [34] of 2.62 µM, a TGI [34] of 20.2 µM and a GI50 [35] of 4.83 µM. The TGI [35] was over 100 µM, the GI50 [36] was 3.1 µM and the TGI [36] was 11.8 µM. For the same compound, the GI50 [37] was 41.1 µM, the TGI [37] was over 100 µM and the GI50 [38] was 3.11 µM. For the same compound, the TGI [38] was 10.5 µM, the GI50 [39] was 2.51 µM and the TGI [39] was 13.1 µM. For the same compound, the GI50 [40] was 2.66 µM, the TGI [40] was 12.7 µM and the GI50 [41] was 2.65 µM. For the same compound, the TGI [41] was 13.4 µM, the GI50 [42] was 3.85 µM and the TGI [42] was 16.7 µM. It also gave a GI50 [43] of 3.56 µM, a TGI [43] of 19.5 µM and a GI50 [44] of 6.48 µM. It also gave a TGI [44] of over 100 µM, a GI50 [45] of 4.62 µM and a TGI [45] of over 100 µM. It also gave a GI50 [46] of 17.4 µM, a TGI [46] of over 100 µM and a GI50 [47] of 3.05 µM. It also gave a TGI [47] of 8.74 µM, a GI50 [48] of 4.87 µM and a TGI [48] of 29.5 µM. The GI50 [49] was 4.31 µM, the TGI [49] was 17.5 µM and the GI50 [50] was 2.89 µM. The TGI [50] was 10.2 µM, the GI50 [51] was 3.35 µM and the TGI [51] was 12.6 µM. The GI50 [52] was 2.65 µM, the TGI [52] was 8.49 µM and the GI50 [53] was 2.76 µM. The TGI [53] was 11.3 µM, the GI50 [54] was 4.96 µM and the TGI [54] was over 100 µM. The GI50 [55] was 3.08 µM, the TGI [55] was 10.5 µM and the GI50 [56] was 13.3 µM. The TGI [56] was 59.4 µM, the GI50 [57] was 3.06 µM and the TGI [57] was 12.5 µM. For the same compound, the GI50 [58] was 14.4 µM, the TGI [58] was over 100 µM and the GI50 [59] was 11.5 µM. For the same compound, the TGI [59] was 48.3 µM.
